Where a name gives a salt, the structure may show the parent alone.
Experiments:
[1] = tested on: leukotriene pathway in human whole blood (LTB4); test: Human whole blood assay (LTB4, A23187-stimulated); assay type: cell-based; conditions: human whole blood diluted 1:1, calcium ionophore A23187 stimulation, LTB4 levels
Method: An in vitro cellular assay was performed using human whole blood collected in heparin-containing tubes, which was used to test the ability of compounds to modulate the leukotriene pathway in human whole blood. The blood was diluted 1:1 in RPMI medium, pre-incubated for 15 min at 37° Celsius with test compounds at various concentrations, and then stimulated with calcium ionophore, A23187 (7 μg/mL), for 30 min at 37° Celsius. The samples were then centrifuged and plasma was removed. The plasma was diluted in assay buffer and LTB4 levels were measured using a commercial kit (Enzo Life Sciences). The concentration of each compound that was required for half-maximal inhibition (modulation) of […] (IC50) was calculated by a 4-parameter equation using the program GraphPad Prism (GraphPad software). For analysis, data are imported into 3DX and aggregated as the average of duplicates of the calculated ratios in order to calculate Ki and IC50 values. Numbers in parentheses are the number of runs for the assay.

human FLAP = human FLAP (Homo sapiens (Human), UniProt P20292); test: FLAP binding assay (HTRF); conditions: wild type FLAP-containing membranes, HTRF format
Method: The assay below is used to test the modulatory activity of compounds against FLAP. Human and mouse FLAP-encoding DNA was amplified by polymerase chain reaction and cloned into pFastBac1 (Invitrogen) with a NH2-terminal 6-His tag for expression in Spodoptera frugiperda (Sf-9) cells. FLAP-containing membranes were prepared as was a FITC-labeled FLAP modulator (3-(3-(tert-butylthio)-1-(4-chlorobenzyl)-5-(quinolin-2-ylmethoxy)-1H-indol-2-yl)-2,2-dimethylpropanoic acid). The FLAP binding assay is performed in HTRF format (homogeneous time resolved fluorescence). […] The reaction is allowed to proceed for two hours after which the plate is read on an Envision plate reader in HTRF mode. Data are expressed as a HTRF ratio.
For human FLAP binding assays, data are analyzed with 3DX Explorer software. […] For analysis, data from multiple runs are averaged and each compound may be tested in 2 to 20 runs. Each run comprises two plates and each plate includes duplicates. Data from each plate is averaged and data are imported into 3DX. The data from multiple runs are aggregated as the average of duplicates of the calculated ratios in order to calculate Ki and IC50 values. Numbers in parentheses are the number of runs for the assay.

Sequence of human FLAP (P20292 whole entry): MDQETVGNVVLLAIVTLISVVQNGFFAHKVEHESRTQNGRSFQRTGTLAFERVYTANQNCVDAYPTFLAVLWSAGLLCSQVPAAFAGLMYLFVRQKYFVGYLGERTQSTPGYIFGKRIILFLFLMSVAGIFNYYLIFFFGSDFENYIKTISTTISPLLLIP

Row | IC50 [1] [nM] | Structure (SMILES) | other results
1 | 3570 | Cn1ccc(COc2cc(F)c3nc(C4CCCC[C@@H]4C(=O)O)n(Cc4ccc(N5CC(F)(F)C5)cc4)c3c2)n1 (mixture of isomers) [Example 168, racemic cis-2-{1-[4-(3,3-Difluoroazetidin-1-yl)benzyl]-4-fluoro-6-[(1-methyl-1H-pyrazol-3-yl)methoxy]-1H-benzimidazol-2-yl}cyclohexanecarboxylic acid as the formate salt] | –
2 | – | Cn1ccc(COc2ccc3nc([C@@H]4CCCC[C@@H]4C(=O)O)n(Cc4ccc(OC(F)(F)F)cc4)c3c2)n1 (relative stereo) [Example 36, (1S*,2R*)-2-{6-[(1-Methyl-1H-pyrazol-3-yl)methoxy]-1-[4-(trifluoromethoxy)benzyl]-1H-benzimidazol-2-yl}cyclohexanecarboxylic acid] | IC50 ([1]; Homo sapiens): 590 nM
3 | – | Cn1ccc(COc2ccc3nc([C@@H]4CCCC[C@@H]4C(=O)O)n(Cc4ccc(OC(F)(F)F)cc4)c3c2)n1 (relative stereo) [Example 45, (1R*,2S*)-2-{6-[(1-Methyl-1H-pyrazol-3-yl)methoxy]-1-[4-(trifluoromethoxy)benzyl]-1H-benzimidazol-2-yl}cyclohexanecarboxylic acid] | IC50 ([1]; Homo sapiens): > 10000 nM
4 | 550 | CCC(CC)(Cc1nc2ccc(OCc3ccn(C)n3)cc2n1Cc1ccc(-c2ccc(C(F)(F)F)cc2)cc1)C(=O)O [Example 188, 2-ethyl-2-((6-((1-methyl-1H-pyrazol-3-yl)methoxy)-1-((4′-(trifluoromethyl)-[1,1′-biphenyl]-4-yl)methyl)-1H-benzo[d]imidazol-2-yl)methyl)butanoic acid] | –
5 | 210 | Cc1ccc(COc2ccc3nc([C@H]4CCCC[C@H]4C(=O)O)n(Cc4ccc(OC(F)(F)F)c(Cl)c4)c3c2)nc1 (racemic) [Example 32, racemic cis-2-{1-[3-Chloro-4-(trifluoromethoxy)benzyl]-6-[(5-methylpyridin-2-yl)methoxy]-1H-benzimidazol-2-yl}cyclohexanecarboxylic acid] | –
6 | – | Cn1ccc(COc2cc3c(cc2F)nc([C@@H]2CCCC[C@@H]2C(=O)O)n3Cc2ccc(OC(F)(F)F)cc2F)n1 (racemic) [Example 90, racemic cis-2-{5-Fluoro-1-[2-fluoro-4-(trifluoromethoxy)benzyl]-6-[(1-methyl-1H-pyrazol-3-yl)methoxy]-1H-benzimidazol-2-yl}cyclohexanecarboxylic acid] | Ki (human FLAP): 27 nM

Row | Structure (SMILES) | IC50 [1] [nM] | other results
7 | Cc1ccc(COc2ccc3nc([C@@H]4[C@H](C(=O)O)C4(C)C)n(Cc4ccc(OC(F)(F)F)cc4)c3c2)nc1 (racemic) [Example 25, racemic cis-2,2-Dimethyl-3-{6-[(5-methylpyridin-2-yl)methoxy]-1-[4-(trifluoromethoxy)benzyl]-1H-benzimidazol-2-yl}cyclopropanecarboxylic acid] | 3120 | –

— patent publication US9089569B2, “1,2,6-substituted benzimidazoles as flap modulators” (JANSSEN PHARMACEUTICA NV, priority 2013, dated 2015)
